Experimental data published in PubChem BioAssay (NCI).
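Cultured in 96-well plates, cells were exposed to test compound for 48 hours across five concentrations. At the GI50, growth is halved. The concentration for full growth arrest is given as TGI.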

Legend:
Test in all cases: NCI tumour cell line growth inhibition, 48 h
NCI-H23 lung = test system: NCI-H23 lung
UO-31 renal = test system: UO-31 renal
HT29 colon = test system: HT29 colon
SK-MEL-2 melanoma = test system: SK-MEL-2 melanoma
SR leukemia = test system: SR leukemia
UACC-257 melanoma = test system: UACC-257 melanoma
IGROV1 ovarian = test system: IGROV1 ovarian
SK-OV-3 ovarian = test system: SK-OV-3 ovarian
SF-539 CNS = test system: SF-539 CNS
EKVX NSCLC = test system: EKVX NSCLC

Structure (SMILES) | TGI (NCI-H23 lung) [µM] | TGI (UO-31 renal) [µM] | TGI (HT29 colon) [µM] | TGI (SK-MEL-2 melanoma) [µM] | TGI (SR leukemia) [µM] | TGI (UACC-257 melanoma) [µM] | TGI (IGROV1 ovarian) [µM] | TGI (SK-OV-3 ovarian) [µM] | TGI (SF-539 CNS) [µM] | TGI (EKVX NSCLC) [µM] | GI50 (NCI-H23 lung) [nM] | GI50 (UACC-257 melanoma) [nM] | GI50 (SK-OV-3 ovarian) [nM] | GI50 (EKVX NSCLC) [nM] | GI50 (UO-31 renal) [nM] | GI50 (HT29 colon) [nM] | GI50 (SK-MEL-2 melanoma) [nM] | GI50 (SR leukemia) [nM] | GI50 (IGROV1 ovarian) [nM] | GI50 (SF-539 CNS) [nM]
CC(C)c1cccc(C(C)C)c1NC(=S)Nc1ccccc1 | > 100 | > 100 | > 100 | > 100 | > 100 | > 100 | > 100 | > 100 | > 100 | > 100 |  |  |  |  |  |  |  |  |  | 
CCCCCCCCCCCCCCCc1ccc(C(=O)C[n+]2ccccc2)cc1 | 1.79 |  |  |  |  | 3.51 |  | 3.34 |  | 8.72 | 502 | 1700 | 1710 | 1820 |  |  |  |  |  | 
Nc1cccc2cc(S(=O)(=O)Nc3ccc(C(=O)O)cc3)ccc12 | > 100 | > 100 | > 100 | > 100 | > 100 | > 100 | > 100 | > 100 |  | > 100 |  |  |  |  |  |  |  |  |  | 
N=C(N)c1ccc(-c2ccc(-c3ccccc3)o2)cc1 | 14.8 | 3.53 | 4.51 | 3.98 | 5.29 | 4.56 | 4.5 | 10.2 | 3.38 | 11.8 | 3370 | 2210 | 2890 | 2610 | 1790 | 2010 | 2140 | 1670 | 2000 | 1650
CCN(CC)CCSc1nc2c([N+](=O)[O-])cccc2[nH]1 | > 100 |  | > 100 |  |  | > 100 | > 100 | > 100 | > 100 | > 100 |  |  |  |  |  |  |  |  |  | 
COc1ccc(C2C(Cl)C(=O)N2NC(=O)c2ccc(NC(C)=O)cc2)cc1OC (stereo unspecified) | > 100 | > 100 | > 100 | > 100 | > 100 | > 100 | > 100 | > 100 | > 100 |  |  |  |  |  |  |  |  |  |  | 
O=C(Nc1ccc(-n2cc(-c3ccncc3)c(-c3ccc(O)c(Cl)c3)n2)cc1)c1ccc(Cl)c(Cl)c1 | > 32.5 | > 32.5 |  | 7.41 | > 32.5 | > 32.5 | > 32.5 |  | 2.25 | > 32.5 | 2180 | > 32500 |  | 30500 | 1800 |  | 932 | 1190 | > 32500 | 656
CSc1nc(NC2OC(CO)C(O)C(O)C2O)c(N)c(=O)n1C (stereo unspecified) | > 100 | > 100 | > 100 | > 100 |  | > 100 | > 100 | > 100 | > 100 | > 100 |  |  |  |  |  |  |  |  |  | 
CC(C)=CCC/C(C)=C/CC/C(C)=C/C(O)c1ccccc1 (stereo unspecified) | 55.8 | 36.3 | 32.9 | 34.9 | 44.1 | 35.6 | 37.2 | 36.5 |  | 34.3 |  |  |  |  |  |  |  |  |  | 
NC(=O)OCc1c(O)c2c(c(O)c1COC(N)=O)C(=O)C=CC2=O | > 100 | > 100 | > 100 | > 100 | > 100 | > 100 | > 100 | > 100 | > 100 | > 100 |  |  |  |  |  |  |  |  |  | 
CNC1=C(C)C(=O)C2=C(C1=O)C(COC(N)=O)C1(OC)C3NC3CN21 (stereo unspecified) |  | 7.4 | 4.01 | 4.27 | > 100 | 3.64 | 91.2 | 36.5 | 1.92 | > 100 |  |  |  |  |  |  |  |  |  | 
